ChEMBL document CHEMBL1201862, “PubChem BioAssay data set” (2004)
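In this assay, cells in 96-well plates receive the compound at five concentrations for 48 hours. Endpoints are linearly interpolated between the surrounding concentrations. At the GI50, growth is halved.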 The source made the active and inactive calls. Cut-off read from the data, not from the text of the source: active = GI50 up to about 1.1 µM and inactive = higher.

Legend:
Experiment in all cases: inhibition of tumour cell growth, NCI panel, 48 h
OVCAR-5 = tested on: OVCAR-5
NCI-H23 = tested on: NCI-H23
HOP-92 = tested on: HOP-92
SN12C = tested on: SN12C
OVCAR-3 = tested on: OVCAR-3
OVCAR-8 = tested on: OVCAR-8
UACC-62 = tested on: UACC-62
SF-268 = tested on: SF-268
HCT-116 = tested on: HCT-116
SK-OV-3 = tested on: SK-OV-3
SK-MEL-28 = tested on: SK-MEL-28
K562 = tested on: K562
SW-620 = tested on: SW-620
SR = tested on: SR
SK-MEL-2 = tested on: SK-MEL-2
EKVX = tested on: EKVX
SNB-19 = tested on: SNB-19
MDA-MB-435 = tested on: MDA-MB-435
PC-3 = tested on: PC-3
Hs-578T = tested on: Hs-578T

SMILES | GI50 (OVCAR-5) | GI50 (NCI-H23) | GI50 (HOP-92) | GI50 (SN12C) | GI50 (OVCAR-3) | GI50 (OVCAR-8) | GI50 (UACC-62) | GI50 (SF-268) | GI50 (HCT-116) | GI50 (SK-OV-3) | GI50 (SK-MEL-28) | GI50 (K562) | GI50 (SW-620) | GI50 (SR) | GI50 (SK-MEL-2) | GI50 (EKVX) | GI50 (SNB-19) | GI50 (MDA-MB-435) | GI50 (PC-3) | GI50 (Hs-578T)
C=C1C(=O)C23C(O)C1CCC2C12CO[C@]3(O)[C@@H](O)C1C(C)(C)CCC2O (some centres undefined) | 20.2 µM (inactive) | 19.6 µM (inactive) | 3.49 µM (inactive) | 14.3 µM (inactive) | 16.4 µM (inactive) | 7.5 µM (inactive) | 11.9 µM (inactive) | 13.9 µM (inactive) | 10.4 µM (inactive) | 20.3 µM (inactive) | 4.45 µM (inactive) | 3.67 µM (inactive) | 5.81 µM (inactive) | 4.31 µM (inactive) | 15.7 µM (inactive) | 15 µM (inactive) | 14.8 µM (inactive) |  |  | 
CC(C)N1CCCOC(c2ccc([N+](=O)[O-])cc2)O1 (centres undefined) | > 100 µM (inactive) | > 100 µM (inactive) | > 100 µM (inactive) | > 100 µM (inactive) | > 100 µM (inactive) | > 100 µM (inactive) | > 100 µM (inactive) | > 100 µM (inactive) | > 100 µM (inactive) | > 100 µM (inactive) | > 100 µM (inactive) | > 100 µM (inactive) | > 100 µM (inactive) | > 100 µM (inactive) | > 100 µM (inactive) | > 100 µM (inactive) | > 10 µM (inactive) | > 100 µM (inactive) | > 100 µM (inactive) | 
O=C(CCc1nnc2s/c(=C\c3ccc4c(c3)OCO4)c(=O)n12)Nc1cc(Cl)ccc1Cl | > 100 µM (inactive) | > 100 µM (inactive) | > 100 µM (inactive) | > 100 µM (inactive) | > 100 µM (inactive) | > 100 µM (inactive) | > 100 µM (inactive) | > 100 µM (inactive) | > 50.9 µM (inactive) | > 100 µM (inactive) | > 100 µM (inactive) | > 100 µM (inactive) | > 43.6 µM (inactive) | > 100 µM (inactive) | > 100 µM (inactive) | > 100 µM (inactive) | > 100 µM (inactive) |  |  | 
O=C(C#Cc1ccccc1)NC/C=C/c1ccccc1 | > 100 µM (inactive) | 44.4 µM (inactive) | 25.4 µM (inactive) | 49.9 µM (inactive) | 33 µM (inactive) | 35.2 µM (inactive) | 33.6 µM (inactive) | 31.5 µM (inactive) | 41.7 µM (inactive) | 22.2 µM (inactive) | 76.4 µM (inactive) | 33.6 µM (inactive) | 36.9 µM (inactive) | 35.6 µM (inactive) | 35.5 µM (inactive) | > 100 µM (inactive) | 26.7 µM (inactive) |  |  | 
C(=C\c1ccccc1)/Cn1nc(-c2ccccc2)nc1-c1cnccn1 | > 100 µM (inactive) | > 100 µM (inactive) | 35.9 µM (inactive) | > 100 µM (inactive) | > 100 µM (inactive) | > 100 µM (inactive) | > 100 µM (inactive) | > 100 µM (inactive) | > 100 µM (inactive) | 66.7 µM (inactive) | > 100 µM (inactive) | > 100 µM (inactive) | > 100 µM (inactive) | > 100 µM (inactive) |  | > 100 µM (inactive) | > 100 µM (inactive) | > 100 µM (inactive) | > 100 µM (inactive) | 
O=S1(=O)OCCOS(=O)(=O)C1(I)I |  | 11.1 µM (inactive) | 13.7 µM (inactive) | 17.5 µM (inactive) | 24 µM (inactive) | 20.7 µM (inactive) | 14.7 µM (inactive) | 20.4 µM (inactive) | 16.3 µM (inactive) | 21.9 µM (inactive) | 19.9 µM (inactive) | 29.5 µM (inactive) | 16.8 µM (inactive) | 12.3 µM (inactive) | 22 µM (inactive) | 27.5 µM (inactive) | 26.5 µM (inactive) |  |  | 
CN(C)c1ccc(/C=C(\NC(=O)c2ccccc2)c2nc3cncnc3[nH]2)cc1 | > 100 µM (inactive) | > 100 µM (inactive) | 41.5 µM (inactive) | > 100 µM (inactive) | > 100 µM (inactive) | > 100 µM (inactive) | > 100 µM (inactive) | > 100 µM (inactive) |  | > 100 µM (inactive) | > 100 µM (inactive) | > 100 µM (inactive) | > 100 µM (inactive) | > 100 µM (inactive) | > 100 µM (inactive) | > 100 µM (inactive) | > 100 µM (inactive) |  |  | 
O=C(N/N=C(COc1ccc([N+](=O)[O-])cc1)\N=C\c1ccncc1)c1ccncc1 | > 100 µM (inactive) | > 100 µM (inactive) |  | > 100 µM (inactive) | > 100 µM (inactive) | 60.1 µM (inactive) | > 100 µM (inactive) | > 100 µM (inactive) | > 100 µM (inactive) | > 100 µM (inactive) | > 100 µM (inactive) | > 100 µM (inactive) | > 100 µM (inactive) |  | > 100 µM (inactive) | > 100 µM (inactive) | > 100 µM (inactive) | > 100 µM (inactive) | > 100 µM (inactive) | 
NC1=Nc2ccccc2Sc2ccccc21 | > 100 µM (inactive) | > 100 µM (inactive) | 32.7 µM (inactive) | > 100 µM (inactive) | > 100 µM (inactive) | > 100 µM (inactive) | > 100 µM (inactive) | 56.9 µM (inactive) | 35.9 µM (inactive) | > 100 µM (inactive) | > 100 µM (inactive) | 82.6 µM (inactive) | > 100 µM (inactive) | > 100 µM (inactive) | > 100 µM (inactive) | > 100 µM (inactive) | 87.3 µM (inactive) |  |  | 
CNC(=O)NCCCCC(NC(=O)OCc1ccccc1)C(=O)OCc1ccccc1 (centres undefined) | 46 µM (inactive) | 29.3 µM (inactive) | 36 µM (inactive) | 24.2 µM (inactive) | 16.1 µM (inactive) | 29.4 µM (inactive) | 21.5 µM (inactive) |  | 51.6 µM (inactive) | > 100 µM (inactive) | 21.1 µM (inactive) | 44.3 µM (inactive) | > 100 µM (inactive) | 27.4 µM (inactive) | 22 µM (inactive) | 98.9 µM (inactive) | > 100 µM (inactive) |  |  | 
CC(C)(C)c1cc(C(O)(C(F)(F)F)C(F)(F)F)c2c(c1)C(C(F)(F)F)(C(F)(F)F)OC(c1ccccc1)(C(C)(C)C)N2 (centres undefined) | 18.8 µM (inactive) | 1.99 µM (inactive) | < 0.01 µM (active) | 4.85 µM (inactive) | 0.637 µM (active) | 6.05 µM (inactive) | 3.66 µM (inactive) |  | 3.72 µM (inactive) | 2.7 µM (inactive) | 9.16 µM (inactive) | 3.07 µM (inactive) | 4.5 µM (inactive) | 2.58 µM (inactive) | 4.45 µM (inactive) | 5.18 µM (inactive) | 4.65 µM (inactive) |  |  | 
Cc1cn(CC2=NCC(C)N2)c(=O)[nH]c1=O (centres undefined) | > 100 µM (inactive) | > 100 µM (inactive) | > 100 µM (inactive) | > 100 µM (inactive) |  | > 100 µM (inactive) | > 100 µM (inactive) | > 100 µM (inactive) | > 100 µM (inactive) | > 100 µM (inactive) | > 100 µM (inactive) | > 100 µM (inactive) | > 100 µM (inactive) | > 100 µM (inactive) | > 100 µM (inactive) | > 100 µM (inactive) | > 100 µM (inactive) |  | > 100 µM (inactive) | > 100 µM (inactive)
O=C(Nc1cc(C(=O)Nc2cccc(S(=O)(=O)O)c2)cc(C(=O)Nc2cccc(S(=O)(=O)O)c2)c1)c1cccc(C(=O)Nc2cc(C(=O)Nc3cccc(S(=O)(=O)O)c3)cc(C(=O)Nc3cccc(S(=O)(=O)O)c3)c2)c1 | > 100 µM (inactive) | > 100 µM (inactive) |  | > 100 µM (inactive) | > 100 µM (inactive) | > 100 µM (inactive) | > 100 µM (inactive) | > 100 µM (inactive) | > 100 µM (inactive) | > 100 µM (inactive) | > 100 µM (inactive) | 25.6 µM (inactive) | > 100 µM (inactive) |  | > 100 µM (inactive) | > 100 µM (inactive) |  | > 100 µM (inactive) | > 100 µM (inactive) | > 100 µM (inactive)
Cn1cc2ccccc2c1-c1nc(N)nc(F)n1 | > 100 µM (inactive) | > 100 µM (inactive) | > 100 µM (inactive) | > 100 µM (inactive) | > 100 µM (inactive) | > 100 µM (inactive) |  | > 100 µM (inactive) | > 100 µM (inactive) | > 100 µM (inactive) | > 100 µM (inactive) | > 100 µM (inactive) | 78.3 µM (inactive) | > 100 µM (inactive) | > 100 µM (inactive) | 64.4 µM (inactive) | > 100 µM (inactive) |  |  | 
CCN(CC)c1nnc(CCCCCCCCc2nnc(N(CC)CC)o2)o1 | > 100 µM (inactive) | > 100 µM (inactive) | > 100 µM (inactive) | > 100 µM (inactive) | > 100 µM (inactive) | > 100 µM (inactive) |  | > 100 µM (inactive) | > 100 µM (inactive) | > 100 µM (inactive) | > 100 µM (inactive) | > 100 µM (inactive) | > 100 µM (inactive) |  | > 100 µM (inactive) | > 100 µM (inactive) | > 100 µM (inactive) | > 100 µM (inactive) | > 100 µM (inactive) | 
O=C1N(Cl)C(=O)C(c2ccc(Cl)cc2)(c2ccc(Cl)cc2)N1Cl |  | > 100 µM (inactive) | > 100 µM (inactive) | 96.8 µM (inactive) | > 100 µM (inactive) | 71.4 µM (inactive) |  | > 100 µM (inactive) | 72.6 µM (inactive) | > 100 µM (inactive) | > 100 µM (inactive) | > 100 µM (inactive) | > 100 µM (inactive) | 39.4 µM (inactive) | > 100 µM (inactive) | > 100 µM (inactive) | > 100 µM (inactive) |  |  | 
